In patent US20240277767A1, “METHODS AND USES” (PROLEUKOCYTE AB, priority 2021, published 2024):

Key:
[1] = target: T1, Nrf2 (Homo sapiens, UniProt Q16236); details: presumably via inhibition of TrxR (Saei et al., 2020); cited from earlier work
T1 sequence (Q16236 1-605): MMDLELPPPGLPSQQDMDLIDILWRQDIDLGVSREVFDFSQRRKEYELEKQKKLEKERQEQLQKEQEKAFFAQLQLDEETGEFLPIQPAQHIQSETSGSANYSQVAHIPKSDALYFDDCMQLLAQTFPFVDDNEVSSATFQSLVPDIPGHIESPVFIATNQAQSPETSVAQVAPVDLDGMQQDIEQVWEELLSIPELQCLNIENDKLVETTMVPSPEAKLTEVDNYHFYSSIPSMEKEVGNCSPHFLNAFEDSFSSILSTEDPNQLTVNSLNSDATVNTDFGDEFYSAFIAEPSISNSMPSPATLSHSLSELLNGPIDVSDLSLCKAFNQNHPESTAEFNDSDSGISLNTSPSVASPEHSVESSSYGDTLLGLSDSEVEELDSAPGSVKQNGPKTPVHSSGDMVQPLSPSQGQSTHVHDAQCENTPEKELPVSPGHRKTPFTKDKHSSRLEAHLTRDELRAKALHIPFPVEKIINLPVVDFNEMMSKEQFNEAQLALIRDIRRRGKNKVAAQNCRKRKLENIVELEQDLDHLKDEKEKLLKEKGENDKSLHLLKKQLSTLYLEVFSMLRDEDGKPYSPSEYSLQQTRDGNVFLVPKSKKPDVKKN

[2] = system: CD19 directed CAR T cells; assay: CD19-directed CAR T-cell lysis of RAJI and N6/ADR tumour cells after H2O2; format: cell-based, human; details: H2O2 at different concentrations, E:T 15:1, vs control CAR T cells
Description: Melanoma patient derived TIL and CD19 directed CAR T cells were generated as previously described (Magalhaes et al., 2018; Lövgren et al., 2020).
(§1) For Nrf2 inhibition, NK cells were treated with 50 μM ML-385 (Sigma-Aldrich) in parallel. For H2O2 treatment, lymphocyte cells were washed and resuspended to 1×10^6 cells/mL in medium and exposed to indicated H2O2 (Sigma-Aldrich) concentration for 1 h at 37° C. Cells were washed with medium and then used for further experiments. For monocyte experiments, autologous NK cell-monocytes or TIL-monocytes were used. NK cells/TIL were isolated and pre-treated with 0.5 μg/mL AUF, as described above, and co-cultured with unstimulated at the ratio, 1:2 M:NK, or stimulated monocytes at the ratio, 1:1 M:NK, if not indicated otherwise. Stimulated monocytes were activated with 100 ng/ml PMA for 1 min, washed and added at indicated ratio, the number of NK cell/TIL was kept constant. As control, H2O2 was used at indicated concentration. […]
For cytotoxic assay, a standard 4 h [Cr^51]-release assay was used. […] The supernatant was collected onto LUMA plates (Perkin-Elmer) and radioactivity/tumour cell lysis was detected by MicroBeta2 (Perkin Elmer). Target cell killing measured by % specific lysis and calculated using the formula: ((experimental release-spontaneous release)/(maximum release-spontaneous release))*100.

[3] = system: Nrf2 target genes (NQO1, HMOX1, TXNRD1, Keap1); assay: qPCR of classical Nrf2 target genes in TIL; format: cell-based, human
Description: Lymphocytes were pre-treated with AUF, SUL or DMF as described above. RNA was isolated using TRIzol™ Plus RNA Purification Kit (Invitrogen). cDNA was generated using the iScript™ cDNA Synthesis Kit (Bio-Rad) and qPCR was done using iTaq™ Universal SYBR® Green Supermix (Bio-Rad) in the CFX96 Touch Real-Time PCR Detection System (Bio-Rad). Fold change expression from untreated cells was calculated using the 2^-ΔΔCt formula with b-actin as reference gene. Evaluated genes were NAD(P)H Quinone Dehydrogenase 1 (NQO1), Kelch Like ECH Associated Protein 1 (Keap1), Heme Oxygenase 1 (HMOX1) and Thioredoxin Reductase 1 (TXNRD1).

[4] = system: tumour infiltrating lymphocytes (TIL); assay: Intracellular ROS levels in TIL (CM-H2DCFDA, flow cytometry); format: cell-based, human
Description: For Nrf2 inhibition, NK cells were treated with 50 μM ML-385 (Sigma-Aldrich) in parallel. For H2O2 treatment, lymphocyte cells were washed and resuspended to 1×10^6 cells/mL in medium and exposed to indicated H2O2 (Sigma-Aldrich) concentration for 1 h at 37° C. Cells were washed with medium and then used for further experiments. For monocyte experiments, autologous NK cell-monocytes or TIL-monocytes were used. NK cells/TIL were isolated and pre-treated with 0.5 μg/mL AUF, as described above, and co-cultured with unstimulated at the ratio, 1:2 M:NK, or stimulated monocytes at the ratio, 1:1 M:NK, if not indicated otherwise. Stimulated monocytes were activated with 100 ng/ml PMA for 1 min, washed and added at indicated ratio, the number of NK cell/TIL was kept constant. As control, H2O2 was used at indicated concentration. Cells were co-cultured for 2 h and then effector cells were stained for intracellular ROS (see flow cytometry) or used as effector cells in Cr^51 release assay (E:T ratio 10:1).
For TIL, T cells were pre-incubated with 10 μM CM-H2DCFDA (Thermo Fisher Scientific) solution in RPMI for 30 min at 37° C. prior to H2O2 treatment and then stained with anti-CD3, anti-CD4 and anti-CD8.

[5] = system: NK cells; assay: Viability of pre-treated NK cells after H2O2 treatment (flow cytometry); format: cell-based, human; details: alive NK cells 4 h after H2O2 treatment, vs untreated NK cells
Description: Lymphocytes were pre-treated for 18 h with Auranofin (AUF, with the concentration 1 μg/mL for NK cells and 0.5 μg/mL for TIL, if not indicated differently), DL-Sulforaphane (SUL) or Dimethyl Fumarate (DMF) (all Sigma-Aldrich) at indicated concentrations.
as §1
All antibodies (see Table 1) and FACS reagents were used according to manufactures recommendation, if not stated otherwise. […] Samples were fixed with 2% PFA (Thermo scientific) for 15 min before acquired on a NovoCyte (ACEA Biosciences) and analysed using FlowJo Software (TreeStar).

[6] = system: NK cells; assay: Degranulation (CD107a) and IFNγ expression of NK cells co-cultured with K562 cells (flow cytometry); format: cell-based, human; details: for Degranulation capacity (CD107a expression) of NK cells after co-culture with K562: with and without induction of oxidative stress (H2O2)
Description: Lymphocytes were isolated and pre-treated when indicated, with compound and H2O2, as described above. For degranulation/measuring CD107a expression, NK cells were co-cultured with K562 tumour cells at an effector target ratio 1:1 in the presence of anti-CD107a in U-bottom plates. After 2 h, GolgiStop™ and GolgiPlug™ (BD Bioscience) were added and cells were harvested after an additional 4 h co-culture and stained for CD56 and CD3, as described above. For positive control, 25 ng/ml PMA (Sigma Aldrich) and 500 ng/mL Ionomycin (Sigma Aldrich) were added.
Lymphocytes were isolated and pre-treated when indicated, with compounds and/or H2O2, as described above. For degranulation assay, NK cells were co-cultured with K562 cells (E:T ratio 1:1) in the presence of anti-CD107a FITC antibody. After 2 h, GolgiStop™ and GolgiPlug™ (BD Bioscience) were added and cells were harvested after an additional 4 h co-culture and stained for CD56, CD3 and anti-IFNγ, as described above. As a positive control, 25 ng/ml PMA (Sigma Aldrich) and 500 ng/ml Ionomycin (Sigma Aldrich) were added.

CC(=O)OC[C@H]1O[C@@H]([S-])[C@H](OC(C)=O)[C@@H](OC(C)=O)[C@@H]1OC(C)=O.CCP(CC)CC.[Au+] [AUF, Auranofin]
Activation of Nrf2 [1]: strong activator of Nfr2
Killing of CD19+ target cells by CD19 directed CAR T cells [2]: significantly increased killing
Killing of CD19+ target cells by CD19 directed CAR T cells ([2]; listed as auranofin): improved tumour killing
Time of HMOX1 expression peak in TIL [3]: 3 h
Activation of Nrf2 target genes in TIL ([3]; TIL from three melanoma patients KADA, ANRU, BEHA): robust activation
Effect on intracellular ROS levels in TIL ([4]; 72 h after AUF removal): effects remained
Fluorescence correlating to intracellular ROS levels in TIL ([4]; KADA and BEHA TIL): lowered
Viability of NK cells following exposure to H2O2 [5]: improved viability
Difference in protective effect on different NK cell functions (CD107a degranulation vs IFNγ expression) ([6]; during oxidative stress, 6 h co-culture with K562): no difference
Degranulation capacity (CD107a expression) of NK cells after co-culture with K562 [6]: protective effect was observed both in the presence or absence of H2O2
Degranulation capacity (CD107a expression) of NK cells after co-culture with K562 ([6]; listed as Auranofin): increased degranulation capacity
